Series [1] deals with HIV-1. The series is described as follows: HIV-1 plaque assay, inhibitor added 30 minutes before infection. The following applies: for Inhibition (%): HIV-1 plaque formation, Table 5. The series is classed as cell-based, human immunodeficiency virus type 1 (HIV-1). The text has this: Dextran sulfate was used as a positive control. […] Plaques were counted at five days after infection.
(§1) By way of further background, in our assay HIV-1 syncytial plaques are seen as large, multicellular foci (10 to 25 nuclei/syncytium) that appear either brown and granular or clear. Since the number of HIV-1 syncytial plaques correlates with reverse transcriptase (RT) and p24 core antigen activity in the HIV-1 infected cell overlay fluids, the syncytial plaque assay can be used to quantify the amount of infectious virus. Reverse transcriptase activity was assayed according to a described procedure (B. J. Poeisz et al., Proc. Natl. Acad. Sci. (U.S.A.) […], 7415 (1980)). The activity of p24 core antigen induced by HIV-1 infection of CEM-SS cells was measured spectrophotometrically using the commercial Abbott EIA.
Compound E inhibited HIV-1 plaque count 43%, 83%, and 91% at concentrations of 0.2, 0.4, and 2.0 μM, respectively, compared to untreated controls. […] In other experiments addition of 0.2, 0.4 and 2.0 μM Compound E starting sixty minutes after HIV-1 infection inhibited HIV-1 plaque formation 28%, 59% and 97% respectively, compared to untreated controls.

The subject of the next series is extracellular HIV-1. Put plainly: Direct inactivation of extracellular HIV-1 infectivity. Type of series: cell-based, human immunodeficiency virus type 1 (HIV-1). How it is done:
Since ether lipid (EL) analogs are membrane interactive, see, e.g. , A. Noseda et al., Biochim. Biophys. Acta 945, 92 (1988), we determined whether Compound E could directly inactivate extracellular HIV-1 infectivity. About 350 plaque forming units of HIV-1 were mixed with antiviral concentrations (2.0 μM) of E or with control medium alone in a total volume of 100 μl. After three hours of incubation at 37° C., the virus compound and virus medium mixtures were diluted 20-fold to reduce the concentration of Compound E below a significant antiviral concentration. Aliquots (100 μl) of the diluted HIV-1 were added to CEM-SS cell monolayers to measure residual virus infectivity by plaque count. A mean of 22 plaques (N=2) were counted for Compound E-treated HIV-1 and a mean of 27 plaques (N=2) for medium-treated HIV-1.

Series [2] concerns herpes simplex virus type 2 (HSV-2). The series is described as follows: HSV-2 plaque formation in Vero cell monolayers. Type of series: cell-based. The following applies: 2 μM, in words.
The test system of series [3] is HIV-1. The series is described as follows: Infectious HIV-1 multiplication (plaque forming units). Type of series: cell-based, human immunodeficiency virus type 1 (HIV-1). To be noted: in words. How it is done: (§2) In brief, CEM-SS cells were infected with HIV-1. At various times after infection (3, 6, 8, 10, 13 days) the overlay fluids were replaced with fresh medium. Overlay fluids replaced on days 8, 10 and 13 were saved at -80° C. to measure HIV-1 plaque forming units according to our described protocol above and RT activity (described by Poiesz et al., Proc. Natl. Acad. Sci. U.S.A. 77, 7415 (1980). Results are given in Table 8 below.

The next series has as its system reverse transcriptase. Put plainly: Reverse transcriptase activity in HIV-1 infected CEM-SS cells. The series is classed as cell-based, human immunodeficiency virus type 1 (HIV-1). The following applies: in words. How it is done:
as §1, §2

The subject of the next series is extracellular HSV-2. Put plainly: Direct inactivation of extracellular HSV-2 infectivity. The series is classed as cell-based, herpes simplex virus type 2 (HSV-2). To be noted: 2 μM, in words.
Series [4] deals with KB cells. The series is described as follows: Cytostatic activity on KB cells. Type of series: cell-based. The following applies: Homo sapiens; KB cells, after controls doubled three times; read-out: IC50 KB. How it is done: (§3) All cells were grown in Eagle's minimum essential medium supplemented with 10% fetal bovine serum with the exception of HL-60 and K562-4 cells which were grown in RPMI 1640 medium supplemented with 10% fetal bovine serum. The KB and MH1 C1 cells, from a human nasopharyngeal carcinoma and rat hepatoma, respectively, were from American Type Culture Collection. The ChaGo cells, a human lung carcinoma, was generously provided by Dr. A. H. Tashjian. The human promyeloblastic leukemia cells, K562-4 were kindly supplied by Dr. Bismarck Lozzio. HL-60 cells, a human promyelocytic leukemia, and P388 cells, a mouse leukemia, were obtained from Dr. Y.-C. Cheng. The 77 cells were put into culture by us by excising the 7777, Morris hepatoma from a rat graciously supplied by the late Dr. H. P. Morris.
(§4) Cells were transferred or removed from monolayers for counting after a one or two minute incubation with 0.02% sodium ethylenediamine tetraacetate in phosphate-buffered saline to dislodge the cells. Flasks were seeded at a density of 1×10^3 cells per cm^2 or 2×10^4 per milliliter for suspension cultures. The HL-60 and K562-4 suspension cultures were used about 24 hours after seeding. The compounds to be tested were diluted to various concentrations and added to the monolayer cultures. All of the test compounds were dissolved in 10% dimethyl sulfoxide (DMSO) at concentrations that would give a final DMSO concentration of 0.1%. Control flasks contained 0.1% DMSO. Control cell replication was followed until approximately three doublings had occurred, and then all of the treated cells were counted.
(§5) The KB cells represented cells with low alkyl cleavage activity (less than the detectable level of 0.1-0.2 units per milligram protein by our assay procedure) and the 77 cells represented cells similar to normal cells with relatively high alkyl cleavage activity (1.6 units per milligram of protein). Our value for the cleavage activity of cultured 77 cells agrees well with the value of 1.4 units per milligram of protein reported by Soodsma et al, Cancer Res. 30, 309 (1970), for freshly excised 7777 Morris hepatoma tissue. In further confirmation of our assay procedure, we obtained a value of 12.6±4.1 units per milligram of protein in excised rat liver compared to 7.3 units per milligram of protein in rat liver measured by Soodsma et al.

Another series deals with 77 cells. The series is described as follows: Cytostatic activity on 77 cells. Type of series: cell-based, rat. To be noted: for IC50: 77 cells, after controls doubled three times; for 77/KB: ratio of IC50 values ± standard error of the quotient. How it is done: as §3, §4, §5
For another series, the system named is ChaGo cells. Put plainly: Cytostatic activity on ChaGo cells. The series is classed as cell-based, human. The following applies: Homo sapiens. How it is done: as §3, §4
In a further series the test system is K562-4 cells. The series is described as follows: Cytostatic activity on K562-4 cells. Type of series: cell-based. To be noted: Homo sapiens; K562-4 (printed X562-4). How it is done:
as §3, §4

The subject of a further series is HL-60 cells. The series is described as follows: Cytostatic activity on HL-60 cells. Type of series: cell-based. To be noted: Homo sapiens. How it is done: as §3
(§6) Cells were transferred or removed from monolayers for counting after a one or two minute incubation with 0.02% sodium ethylenediamine tetraacetate in phosphate-buffered saline to dislodge the cells. Flasks were seeded at a density of 1×10^3 cells per cm^2 or 2×10^4 per milliliter for suspension cultures. The HL-60 and K562-4 suspension cultures were used about 24 hours after seeding. […] Control cell replication was followed until approximately three doublings had occurred, and then all of the treated cells were counted.

Series [5] deals with P388 mouse leukemia cells. Put plainly: In vivo anti-tumor activity, P388 mouse leukemia. Set-up: species or system mouse (BDF1 female mice). The following applies: for increased survival: days 1, 5, and 9. An excerpt:
P388 mouse leukemia cells were transplanted by intraperitoneal injection of 1×10^6 cells into BDF1 female mice on day 0. Treatments were begun on day 1. Control mice received the vehicle for the test compounds. […]

Series [6] concerns KB cells. Put plainly: Synergism with vincristine on KB cell number. Type of series: cell-based, human. How it is done: as §3, §4
For example, 1 μM VIII reduced cell number to 45% of control and 0.004 μg per milliliter vincristine caused a reduction to 27% of control. Thus, the two agents together should have reduced cell number to 12% of control if they acted additively.

The test system of another series is P388 cells. The series is described as follows: Cytostatic activity on P388 cells. Type of series: cell-based. To be noted: Mus musculus. How it is done: as §3, §6
A further series relates to MH1 C1 cells. Put plainly: Cytostatic activity on MH1 C1 cells. The series is classed as cell-based, rat. How it is done: as §3, §4
In series [7] the test system is HIV-1 binding to target T-cells. To be noted: in words; cited from earlier work.

In the case of `CCCCCCCCCCCCCCCCSCC(C[N+](C)(C)CCO)OC.[I-]` (racemic) [Compound 12, (±)-3-hexadecylthio-2-methoxy-N,N-dimethyl-N-β-hydroxyethyl-1-propyl ammonium iodide], the “selectivity against HIV-1 plaque formation” value in the series on HIV-1 [1] (vs HSV-2, in words) is on record as “selective inhibitory activity against HIV-1 plaque formation”. Besides, in the series with extracellular HIV-1 (2.0 μM, in words), the “inactivation of extracellular HIV-1 infectivity” value is on record as “does not inactivate extracellular HIV-1 infectivity”. This compound also yielded a mean residual plaques with extracellular HIV-1 (HIV-1 treated 2.0 μM, 3 hours, 37° C., diluted 20-fold, N=2 (medium: 27 plaques)) of 22 plaques. In addition, the “inhibition of HSV-2 plaque formation” value in [2] is reported as “neither inhibits herpes simplex virus type 2 (HSV-2) plaque formation in Vero cell monolayers”. The infectious virus production result with HIV-1 [3] (13 days) is on record as “infectious virus production is still inhibited”; in the series with HIV-1 [3] (between 8 and 10 days) it was “markedly inhibit infectious virus production”. Besides, the reverse transcriptase activity entry is “reverse transcriptase activity increases” in the series on reverse transcriptase (13 days); “markedly inhibit infectious virus production and reverse transcriptase activity in a dose-dependent manner” with reverse transcriptase (between 8 and 10 days). The “inactivation of extracellular HSV-2 infectivity” value in the series on extracellular HSV-2 is listed as “nor directly inactivates extracellular HSV-2 infectivity”.

A word on the IC50: it is the concentration that gives 50% inhibition. For the compound `CCCCCCCCCCCCCCCCOCC(C[N+](C)(C)CCO)OC(C)=O.[I-]` (racemic) [XI, (±)-3-hexadecyloxy-2-acetoxy-N,N-dimethyl-N-β-hydroxyethyl-1-propyl ammonium iodide], the IC50 in the series with KB cells [4] was 430 ± 50 nM; with 77 cells it was 1350 ± 640 nM; in the series on ChaGo cells, 1200 nM; with K562-4 cells, 3500 nM. In addition, the 77/KB with 77 cells amounted to 3.1 ± 1.51.

In the case of `CCCCCCCCCCCCCCCCOCC[N+](C)(C)CCCO.[I-]` [VI, 2-hexadecyloxy-N,N-dimethyl-N-gamma-hydroxypropyl-1-ethyl ammonium iodide], the half-inhibitory concentration (IC50) in the series on KB cells [4] was found to be 230 ± 70 nM; in the series with 77 cells, 2050 ± 910 nM; with K562-4 cells it was 2200 ± 410 nM; in the series with HL-60 cells, 450 ± 11 nM. The 77/KB in the series with 77 cells is 8.9 ± 4.79. Besides, the increased survival in series [5] (50 mg/kg) was determined as 26%; in series [5] (75 mg/kg), 48%. The reduced survival in series [5] (75 mg/kg on days 1 and 2) was found to be 48%. Moreover, the “in vivo activity against P388” value in series [5] (in words) is listed as “appeared to have in vivo activity against P388”. In addition, in [5] (one 50 mg/kg dose on day 1), the survival time entry is on record as “did not affect survival time”. For the same compound, the lethality entry in series [5] (single 100 mg/kg dose on day 1) is given as “killed all the mice by day 2”.

For `CCCCCCCCCCCCCCCCCCOCC[N+](C)(C)CCO.[I-]` [VIII, 2-octadecyloxy-N,N-dimethyl-N-β-hydroxyethyl-1-ethyl ammonium iodide], the IC50 in the series on KB cells [4] worked out at 300 ± 140 nM; with 77 cells, 1800 ± 810 nM; in the series with ChaGo cells it was 1000 nM; in the series with K562-4 cells, 1900 nM; in the series with P388 cells, 420 nM; in the series on MH1 C1 cells (MH1 C1), 7700 nM. This compound had an IC50 in the series on MH1 C1 cells (Rattus norvegicus, MH1C1, MH1 C1) of 6400 nM. The 77/KB in the series with 77 cells is given as 5.8 ± 3.8. Further, in the series with KB cells [6] (Homo sapiens, 1 μM VIII, read-out: cell number, % of control), the activity at 1 µM worked out at 45%. Besides, the synergism with vincristine result with KB cells [6] (in words) is “acted synergistically with vincristine against KB cells”. In addition, the “sensitivity of MH1 C1 cells relative to 77 cells” value with MH1 C1 cells (MH1 C1 vs 77 cells) was “two to three times less sensitive to growth inhibition than 77 cells”.

Regarding `CC[C@]1(O)C[C@H]2CN(CCc3c([nH]c4ccccc34)[C@@](C(=O)OC)(c3cc4c(cc3OC)N(C=O)[C@H]3[C@@](O)(C(=O)OC)[C@H](OC(C)=O)[C@]5(CC)C=CCN6CC[C@]43[C@@H]65)C2)C1` [vincristine, reference compound], in the series on KB cells [6] (0.004 μg per milliliter vincristine), the “cell number, % of control” value is on record as 27%.

On to Dextran Sulfate [reference compound], for which the “Inhibition (%)” value in the series with HIV-1 [1] (1 μM) is 91%; in the series with HIV-1 [1] (1 μM, listed as dextran sulfate), 92%; with HIV-1 [1] (2 μM), 100%; in the series on HIV-1 [1] (10 μM) it was 100%. Moreover, the “inhibition of HIV-1 binding to target T-cells” value in series [7] was “a known inhibitor of HIV-1 binding to target T-cells”.

The values above are taken from patent US5614548A, “Quaternary amine containing ether or ester lipid derivatives and therapeutic compositions” (priority 1994, dated 1997).
